Measurements reported in patent publication US20180360100A1 (SCIENTIFIC HOLDINGS, LLC, priority 2017, published 2018).
“Also recorded” adds a separate entry of the source.

Experiments:
CB1 = CB1 (Homo sapiens, UniProt P21554); conditions: cited from earlier work
CB2 = CB2 (Homo sapiens, UniProt P34972); conditions: cited from earlier work
cannabinoid receptors [1] = conditions: cited from earlier work
[2] = Solubilities of pigments in diluents, terpenes and cannabinoids; conditions: in OBP (dipropylene glycol), nexus, terpenes, cannabinoids
Description: Solubilities of Pigments. The present disclosure encompasses solubility embodiments.

cannabinoid receptors [3] = conditions: cited from earlier work; remark: listed apart in the source

Chain of CB1 (P21554 whole entry, species assumed): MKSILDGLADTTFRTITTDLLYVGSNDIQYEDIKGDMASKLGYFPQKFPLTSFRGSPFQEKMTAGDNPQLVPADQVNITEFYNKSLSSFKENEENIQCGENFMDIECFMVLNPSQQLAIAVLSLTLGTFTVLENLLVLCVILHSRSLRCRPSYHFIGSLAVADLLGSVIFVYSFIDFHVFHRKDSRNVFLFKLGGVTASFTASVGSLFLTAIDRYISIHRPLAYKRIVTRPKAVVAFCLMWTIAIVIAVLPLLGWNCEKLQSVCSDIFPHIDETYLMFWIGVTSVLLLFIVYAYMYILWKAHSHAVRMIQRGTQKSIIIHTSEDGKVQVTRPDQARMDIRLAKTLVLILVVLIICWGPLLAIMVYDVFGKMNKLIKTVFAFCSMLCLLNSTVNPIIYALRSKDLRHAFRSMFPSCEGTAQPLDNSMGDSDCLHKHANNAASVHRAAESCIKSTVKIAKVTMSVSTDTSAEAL
Chain of CB2 (P34972 whole entry, species assumed): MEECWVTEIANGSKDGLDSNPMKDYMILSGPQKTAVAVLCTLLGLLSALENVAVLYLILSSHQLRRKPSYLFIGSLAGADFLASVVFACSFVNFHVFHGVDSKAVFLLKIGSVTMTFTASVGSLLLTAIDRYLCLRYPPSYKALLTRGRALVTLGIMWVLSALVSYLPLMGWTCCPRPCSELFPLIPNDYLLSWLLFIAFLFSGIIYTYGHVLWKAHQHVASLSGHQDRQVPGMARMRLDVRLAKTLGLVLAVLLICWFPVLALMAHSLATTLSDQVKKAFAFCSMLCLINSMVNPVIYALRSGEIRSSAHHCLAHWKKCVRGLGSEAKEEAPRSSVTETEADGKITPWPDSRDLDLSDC

Molecule | binding to CB1 (CB1) | binding to CB2 (CB2) | potentiation of binding of 2-arachidonoyl-glycerol (cannabinoid receptors [1]) | solubility of pigment [2] | potentiation of activity of ligands of cannabinoid receptors (cannabinoid receptors [3])
CCCCC/C=C\C/C=C\CCCCCCCC(=O)OC(CO)CO [2-linoleoyl-glycerol] | do not bind | do not bind | potentiate the binding of 2-arachidonoyl-glycerol |  | 
CCCCCCCCCCCCCCCC(=O)OC(CO)CO [2-palmitoyl-glycerol] | do not bind | do not bind | potentiate the binding of 2-arachidonoyl-glycerol |  | 
CC1=C[C@H](O)CC(C)(C)[C@H]1/C=C/C(C)=C/C=C/C(C)=C/C=C/C=C(C)/C=C/C=C(C)/C=C/C1=C(C)C[C@@H](O)CC1(C)C [Lutein] |  |  |  | soluble in both obp, nexus, terpenes, and cannabinoids | 
CCCCCCCCCCCCCCCC(=O)NCCO [palmitoylethanolamine] | do not bind | do not bind |  |  | potentiate activity of ligands of cannabinoid receptors
CCCCCCCCCCCCCCCCCC(=O)NCCO [stearoylethanolamine] | do not bind | do not bind |  |  | potentiate activity of ligands of cannabinoid receptors
Anthocyanins |  |  |  | only soluble in OBP (dipropylene glycol), not it nexus or cannabinoids alone; also recorded: only soluble in dipropylene glycol (i.e. OBP), not in nexus or cannabinoids alone | 
carotene |  |  |  | soluble in both obp, nexus, terpenes, and cannabinoids | 
